Experimental data as given in US20230241196A1, “GONORRHEA SUBUNIT VACCINE” (priority 2020, published 2023).
Converted amounts (≈) assume the structure as drawn. Marks after values point to notes of the source that are not given here.

B1: rMetQ: untagged recombinant N. gonorrhoeae FA1090 MetQ lacking the lipoprotein signal peptide; sequence in FIG. 8 (SEQ ID NO: 4) (protein, listed as Neisseria gonorrhoeae)
chain: GAMEKDSAPAASAAAPSADNGAAKKEIVFGTTVGDFGDMVKEQIQAELEKKGYTVKLVEFTDYVRPNLALAEGELDINVFQHKPYLDDFKKEHNLDITEAFQVPTAPLGLYPGKLKSLEEVKDGSTVSAPNDPSNFARALVMLNELGWIKLKDGINPLTASKADIAENLKNIKIVELEAAQLPRSRADVDFAVVNGNYAISSGMKLTEALFQEPSFAYVNWSAVKTADKDSQWLKDVTEAYNSDAFKAYAHKRFEGYKYPAAWNEGAAKKLAAA

Experiments:
WT FA1090 = experiment: Etest antibiotic susceptibility, WT strain; format: cell-based, Neisseria gonorrhoeae; settings: ~22 h, MIC repeated at least twice of three, unit assumed
Protocol: The henotypes associated with deletion of metQ were explored. […] It was first examined whether complete elimination of MetQ affects cell envelope homeostasis by exposing bacteria to seven antibiotics with different mechanisms of action using Etest assays.
(§1) Briefly, non-piliated colonies of each strain were suspended in GCBL to a turbidity equivalent to that of a 0.5 McFarland standard and spread on 150 mm tissue culture dishes filled with 50 mL GCB to a thickness of 4 mm. Etest strips were placed on the agar surface and plates were cultured for ~22 h, at which point the MICs were determined. Sensitivity assessments were performed three times, and MIC values that repeated at least twice are reported.

[1] = test system: isogenic knockout ΔmetQ (FA1090); experiment: Etest antibiotic susceptibility, ΔmetQ knockout; format: cell-based, Neisseria gonorrhoeae; settings: ~22 h, MIC repeated at least twice of three, unit assumed
Description: (§2) Prokaryotic lipoproteins play versatile functions ranging from cell envelope stability to nutrient acquisition, substrate binding for ABC transporter systems, modulation of the host immune system, signal transduction, and virulence (Kovacs-Simon et al.Infect Immun 79, 548-561 (2011); Hayashi and Wu, PLoS pathogens 14, e1007081 (2018)). […] The henotypes associated with deletion of metQ were explored. A null mutant in ngo2139 ΔmetQ) and its complemented mutant ΔmetQ/Plac::metQ in Ng FA1090 were constructed (Zielke et al., Mol Cell Proteomics 15, 2338-2355 (2016)). It was first examined whether complete elimination of MetQ affects cell envelope homeostasis by exposing bacteria to seven antibiotics with different mechanisms of action using Etest assays.
as §1, with “Etest antimicrobial sensitivity assessments: The susceptibility of WT FA1090, isogenic knockout ΔmetQ, and complementation strain ΔmetQ/Plac: :metQ to seven antimicrobial compounds was assessed by Etests as previously (Zielke et al., PLoS pathogens 14, e1007081 (2018)), according to manufacturer’s instructions. Briefly,” for “Briefly,”

[2] = test system: complementation strain ΔmetQ/Plac::metQ (FA1090); experiment: Etest antibiotic susceptibility, complementation strain; format: cell-based, Neisseria gonorrhoeae; settings: ~22 h, MIC repeated at least twice of three
Description: as §2
as §1, with “Etest antimicrobial sensitivity assessments: The susceptibility of WT FA1090, isogenic knockout ΔmetQ, and complementation strain ΔmetQ/Plac: :metQ to seven antimicrobial compounds was assessed by Etests as previously (Zielke et al., PLoS pathogens 14, e1007081 (2018)), according to manufacturer’s instructions. Briefly,” for “Briefly,”

rMetQ = experiment: Pilot immunogenicity: immunoblot of rMetQ with serum of immunized mice; format: in vivo, Neisseria gonorrhoeae; settings: BALB/c mice, groups of 5; subcutaneous prime, three intranasal boosts
Protocol: First, the immunogenicity of rMetQ was tested by immunizing groups of 5 BALB/c mice with rMetQ, rMetQ-CpG, CpG, or PBS using a subcutaneous prime immunization, followed by a regimen of three intranasal boost doses. A robust, single protein band corresponding to the molecular weight of rMetQ (~30 kDa) was detected in immunoblots with serum derived from mice immunized with rMetQ alone. […] Based on these encouraging results, large-scale immunization/challenge experiments were performed. […] Vaginal washes were collected after the second boost, and antigen-specific antibody titers were assessed in serum collected 14 days after the third boost. […] Bacterial clearance was assessed by enumerating Ng CFUs present in vaginal washes on days 1, 3, 5, and 7 post-infection (FIG. 3C). […]
Densitometry analysis: The expression of MetQ during WT FA1090 infection in female BALB/c mice and intensities of protein bands detected in serum specificity studies were determined by densitometry using FIJI software (Schindelin et al., Nature methods 9, 676-682 (2012)). The amount of MetQ on day 1 post-infection was arbitrarily set to 1 and the protein abundance on days 3 and 5 is expressed relative to the MetQ cellular pool detected on day 1.

Molecule	MIC (Etest) (WT FA1090) [µg/mL]	MIC (Etest) [1] [µg/mL]	MIC (Etest) [2]	MIC (Etest) ([2]; unit assumed) [µg/mL]	Immunoblot intensity of rMetQ band probed with serum (rMetQ)
CC[C@H]1OC(=O)[C@H](C)[C@@H](O[C@H]2C[C@@](C)(OC)[C@@H](O)[C@H](C)O2)[C@H](C)[C@@H](O[C@@H]2O[C@H](C)C[C@H](N(C)C)[C@H]2O)[C@](C)(O)C[C@@H](C)CN(C)[C@H](C)[C@@H](O)[C@]1(C)O [Azithromycin]	0.032 (≈ 0.0427 µM)	0.032 (≈ 0.0427 µM)	0.5^b		
CC1(C)S[C@@H]2[C@H](NC(=O)Cc3ccccc3)C(=O)N2[C@H]1C(=O)O [Benzylpenicillin]	0.064 (≈ 0.191 µM)	0.064 (≈ 0.191 µM)		0.064 (≈ 0.191 µM)	
CO/N=C(\C(=O)N[C@@H]1C(=O)N2C(C(=O)O)=C(COC(C)=O)CS[C@H]12)c1csc(N)n1 [Cefotaxime]	0.004 (≈ 0.00878 µM)	0.004 (≈ 0.00878 µM)		0.008 (≈ 0.0176 µM)	
CN[C@H](CC(C)C)C(=O)N[C@H]1C(=O)N[C@@H](CC(N)=O)C(=O)N[C@H]2C(=O)N[C@H]3C(=O)N[C@H](C(=O)N[C@H](C(=O)O)c4cc(O)cc(O)c4-c4cc3ccc4O)[C@H](O)c3ccc(c(Cl)c3)Oc3cc2cc(c3O[C@@H]2O[C@H](CO)[C@@H](O)[C@H](O)[C@H]2O[C@H]2C[C@](C)(N)[C@H](O)[C@H](C)O2)Oc2ccc(cc2Cl)[C@H]1O [Vancomycin]	8 (≈ 5.52 µM)	8 (≈ 5.52 µM)		8 (≈ 5.52 µM)	
Polymyxin B	64	64		64	
B1					44,405 relative intensity units
